Data reported in US20240425464A1, “Substituted Monohydrazides as Potent Antifungal Agents” (University of Kentucky Research Foundation, priority 2023, published 2024).
≈ marks a conversion by molar mass, not a printed value. Where two headings read alike, the source gives them in different places.

Columns and labels:
[1] = test system: panel of ten C. auris strains (AR Bank #381-390); assay: MIC determination, summary over the C. auris panel; assay type: cell-based, Candida auris; conditions: Candidozyma auris
Experimental: (§1) The antifungal agent amphotericin B (AmB) was purchased from VWR (Radnor PA, USA). AmB was dissolved in DMSO at a final concentration of 5 mg/mL and was stored at −20° C., protected from light. Candida albicans American Type Culture Collection (ATCC) 10231 (strain A), C. albicans ATCC 64124 (B), and C. albicans ATCC MYA-2876 (C) were obtained from Utah State University. C. albicans ATCC 90819 (D), C. albicans ATCC MYA-2310 (E), C. albicans ATCC MYA-1237 (F), C. albicans ATCC MYA-1003 (G), Candida glabrata ATCC 2001 (H), Candida krusei ATCC 6258 (I), Candida parapsilosis ATCC 22019 (J), Cryptococcus neoformans ATCC MYA-895 (M), Aspergillus terreus ATCC MYA-3633 (N), and Aspergillus flavus ATCC MYA-3631 (0) were obtained from the American Type Culture Collection (ATCC; Manassas, VA, USA). Aspergillus nidulans ATCC 38163 (P) was obtained from University of Kentucky. Clinically derived Aspergillus fumigatus NRRL 163 (Q), A. fumigatus NRRL 5109 (R), and A. fumigatus NRRL 6113 (S) were obtained from Northern Regional Research Laboratory (NRRL). Candida auris 384 (K), C. auris 390 (L), and fungal strains 381-400 (including 10 C. auris (AR Bank #381-390), 3 Candida duobushaemulonii (AR Bank #391, AR Bank #392, and AR Bank #394), 2 Candida haemulonii (AR Bank #393 and AR Bank #395), 1 Kodameae ohmeri (AR Bank #396), 1 C. krusei (AR Bank #397), 1 Candida lusitaniae (AR Bank #398), and 2 Saccharomyces cerevisiae strains (AR Bank #399 and AR Bank #400)) were part of a larger fungal library from the AR Bank maintained by the Centers for Disease Control and Prevention (CDC; Atlanta, GA, USA). Filamentous fungi and yeasts were cultivated at 35° C. in RPMI 1640 medium (with L-glutamine, without sodium bicarbonate, Sigma-Aldrich, St. Louis, MO) buffered to a pH of 7.0 with 0.165 M morpholinepropanesulfonic acid (MOPS) buffer (Sigma-Aldrich). For cytotoxicity assays, HepG2 and the mouse macrophage cell line J774A.1 were obtained from University of Kentucky. The human embryonic kidney cell line, HEK-293, was bought from the ATCC. Mammalian cells were grown in Dulbecco's Modified Eagle's Medium (DMEM) (from VWR) with 10% fetal bovine serum (FBS) (from VWR) and 1% Pen/Strep (from ATCC). Cell lines were cultured at 37° C. with 5% CO2 and passaged by trypsinization with 0.05% trypsin: 0.53 mM EDTA (from Sigma-Aldrich).
(§2) From the actively growing yeast culture, 100 µL were then transferred to 900 μL of RPMI 1640 medium and re-adjusted to achieve OD600 of 0.12 (˜1×10^6 CFU/mL). The cell suspension was further diluted to achieve 1:100 in RPMI 1640 medium.

[2] = test system: Candida duobushaemulonii AR Bank #391; assay: MIC determination by in vitro antifungal assay; assay type: cell-based
Experimental: as §1, §2

[3] = test system: Saccharomyces cerevisiae AR Bank #399; assay: MIC determination by in vitro antifungal assay; assay type: cell-based
Experimental: as §1, §2

[4] = test system: Candida haemulonii AR Bank #395; assay: MIC determination by in vitro antifungal assay; assay type: cell-based
Experimental: as §1, §2

[5] = test system: Candida lusitaniae AR Bank #398; assay: MIC determination by in vitro antifungal assay; assay type: cell-based; conditions: Candida strain AR Bank #398
Experimental: as §1, §2

[6] = test system: Candida duobushaemulonii AR Bank #392; assay: MIC determination by in vitro antifungal assay; assay type: cell-based
Experimental: as §1, §2

[7] = test system: Candida haemulonii AR Bank #393; assay: MIC determination by in vitro antifungal assay; assay type: cell-based
Experimental: as §1, §2

[8] = test system: Kodameae ohmeri AR Bank #396; assay: MIC determination by in vitro antifungal assay; assay type: cell-based; conditions: strain AR Bank #396
Experimental: as §1, §2

[9] = test system: Candida krusei AR Bank #397; assay: MIC determination by in vitro antifungal assay; assay type: cell-based; conditions: Candida strain AR Bank #397
Experimental: as §1, §2

[10] = test system: Candida duobushaemulonii AR Bank #394; assay: MIC determination by in vitro antifungal assay; assay type: cell-based
Experimental: as §1, §2

[11] = test system: HepG2 cells; assay: In vitro cytotoxicity assay (resazurin); assay type: cell-based; conditions: for toxicity: up to 31.3 j·tg mL^−1, 24 h
Experimental: The antifungal agent amphotericin B (AmB) was purchased from VWR (Radnor PA, USA). AmB was dissolved in DMSO at a final concentration of 5 mg/mL and was stored at −20° C., protected from light. […] For cytotoxicity assays, HepG2 and the mouse macrophage cell line J774A.1 were obtained from University of Kentucky. […] Mammalian cells were grown in Dulbecco's Modified Eagle's Medium (DMEM) (from VWR) with 10% fetal bovine serum (FBS) (from VWR) and 1% Pen/Strep (from ATCC). Cell lines were cultured at 37° C. with 5% CO2 and passaged by trypsinization with 0.05% trypsin: 0.53 mM EDTA (from Sigma-Aldrich).
Cytotoxicity assays were performed as previously described with slight modifications.^3 HepG2, J774A.1, and HEK-293 cells were first thawed from frozen stocks kept in liquid N2 and grown in Dulbecco's modified Eagles's medium (DMEM) containing 10% fetal bovine serum (FBS) and 1% Pen/Strep. […] The 96-well plates were incubated 37° C. with 5% CO2 overnight. […] The medium in the 96-well plates containing the cells was aspirated and replaced by fresh DMEM (100 μL). […] The 96-well plates were further incubated for 24 h at 37° C. with 5% CO2 overnight. To evaluate cell survival, each well was treated with 10 μL (2 mM) of resazurin sodium salt (Sigma-Aldrich, St. Louis, MO, USA) and was incubated for another 6 h. Metabolically active cells can convert resazurin to the highly fluorescent dye, resorufin, and be detected at ?560 excitation and λ590 emission using a SpectraMax M5 plate reader (Molecular Devices, San Jose, CA, USA). Triton X-100® (1%, v/v) was used as positive control; the negative control consisted of cells treated with the delivery vehicle (0.05% DMSO), and the blank control was only the culture medium with 0.05% DMSO without cells. The experiments were performed in quadruplicate.

[12] = all C. auris strains tested with the exception of AR Bank #390
[13] = against all ten C. auris strains tested (AR Bank #381-390)
[14] = Candidozyma duobushaemuli, read-out: MIC
[15] = Candidozyma haemuli, read-out: MIC

O=C(NNc1ccc(F)cc1F)c1nc(F)ccc1F [Compound 8g]
MIC [1, 12]: 0.49 to 1.95 µg/mL (≈ 1.72 to 6.84 µM)

O=C(NNc1ccc(F)cc1F)c1ccc(F)cn1 [Compound 3g]
MIC [1, 13]: 0.12 to 7.8 µg/mL (≈ 0.449 to 29.2 µM)

O=C(NNc1ccc(Cl)cc1)c1ccccn1 [Compound 2e]
MIC [2]: 0.98 μg/mL^−1
MIC [3]: 0.98 μg/mL^−1
MIC [4]: 0.12 μg/mL^−1
MIC [5]: 0.98 μg/mL^−1
MIC [6]: 0.98 μg/mL^−1
MIC [7]: 0.49 μg/mL^−1
MIC [8]: 0.24 μg/mL^−1
MIC [9]: 0.24 μg/mL^−1
MIC [10]: 0.49 μg/mL^−1

O=C(NNc1ccc(F)cc1F)c1cccc(F)n1 [Compound 5g]
MIC [1, 13]: 0.12 to 7.8 µg/mL (≈ 0.449 to 29.2 µM)

O=C(NNc1cccc(Cl)c1)c1ccccn1 [Compound 2b]
toxicity [11]: no toxicity
MIC [2]: 0.24 μg/mL^−1
MIC [3]: 0.98 μg/mL^−1
MIC [4]: ≤0.06 μg/mL^−1
MIC [5]: 0.98 μg/mL^−1
MIC [6]: 0.24 μg/mL^−1
MIC [7]: 0.12 μg/mL^−1
MIC [8]: 0.12 μg/mL^−1
MIC [9]: 0.12 μg/mL^−1
MIC [10]: 0.12 μg/mL^−1

O=C(NNc1ccc(F)cc1F)c1ccccn1 [Compound 2g]
toxicity [11]: no toxicity
MIC [2, 14]: 0.12 µg/mL (≈ 0.482 µM)
MIC ([3]; read-out: MIC): 0.49 µg/mL (≈ 1.97 µM)
MIC [4, 15]: 0.24 µg/mL (≈ 0.963 µM)
MIC ([5]; Clavispora lusitaniae, read-out: MIC): 1.95 µg/mL (≈ 7.82 µM)
MIC [6, 14]: 0.49 µg/mL (≈ 1.97 µM)
MIC [7, 15]: 0.49 µg/mL (≈ 1.97 µM)
MIC ([8]; read-out: MIC): 0.98 µg/mL (≈ 3.93 µM)
MIC ([9]; Pichia kudriavzevii, read-out: MIC): ≤ 0.06 µg/mL
MIC [10, 14]: 3.9 µg/mL (≈ 15.6 µM)
MIC [1, 13]: 0.06 to 1.95 µg/mL (≈ 0.241 to 7.82 µM)

O=C(NNc1cccc(F)c1)c1cnccn1 [Compound 9a]
cell survival ([11]; at 31.3 j·tg mL^−1): 94%

C[C@@H]1[C@H](O)[C@@H](C)/C=C/C=C/C=C/C=C/C=C/C=C/C=C/[C@H](O[C@@H]2O[C@H](C)[C@@H](O)[C@H](N)[C@@H]2O)C[C@@H]2O[C@](O)(C[C@@H](O)C[C@@H](O)[C@H](O)CC[C@@H](O)C[C@@H](O)CC(=O)O[C@H]1C)C[C@H](O)[C@H]2C(=O)O [AmB, amphotericin B, reference compound]
MIC [2]: 7.8 μg/mL^−1
MIC [3]: 15.6 μg/mL^−1
MIC [4]: 3.9 μg/mL^−1
MIC [5]: 3.9 μg/mL^−1
MIC [6]: 7.8 μg/mL^−1
MIC [7]: 13.6 μg/mL^−1
MIC [8]: 1.95 μg/mL^−1
MIC [9]: 0.49 μg/mL^−1
MIC [10]: 0.98 μg/mL^−1

COc1ccc(NNC(=O)c2nc(F)ccc2F)cc1 [Compound 8f]
MIC [1, 12]: 0.49 to 1.95 µg/mL (≈ 1.75 to 6.98 µM)

O=C(NNc1cccc(F)c1)c1ccccn1 [Compound 2a]
toxicity [11]: no toxicity
MIC [2]: 0.49 μg/mL^−1
MIC [3]: 1.95 μg/mL^−1
MIC [4]: ≤0.06 μg/mL^−1
MIC [5]: 0.98 μg/mL^−1
MIC [6]: 0.24 μg/mL^−1
MIC [7]: 0.12 μg/mL^−1
MIC [8]: 0.24 μg/mL^−1
MIC [9]: 0.24 μg/mL^−1
MIC [10]: 0.49 μg/mL^−1

COc1cccc(NNC(=O)c2ccccn2)c1 [Compound 2c]
MIC [2]: 1.95 μg/mL^−1
MIC [3]: 7.8 μg/mL^−1
MIC [4]: 0.49 μg/mL^−1
MIC [5]: 1.95 μg/mL^−1
MIC [6]: 1.95 μg/mL^−1
MIC [7]: 0.49 μg/mL^−1
MIC [8]: 0.49 μg/mL^−1
MIC [9]: 0.49 μg/mL^−1
MIC [10]: 0.98 μg/mL^−1

O=C(NNc1ccc(F)cc1F)c1ncc(F)cc1F [Compound 7g]
MIC [1, 13]: 0.12 to 7.8 µg/mL (≈ 0.421 to 27.3 µM)
